Reference: patent US8273386B2, “Use of hop acids in fruit juices, fruit juice concentrates and other beverages to inhibit Alicyclobacillus bacteria” (MillerCoors LLC, priority 2004, dated 2012)

Columns and labels:
Type in all cases: cell-based
[1] = tested on: Alicyclobacillus acidoterrestris; test: Minimal Inhibitory Concentration (MIC) assay, broth dilution in BAM, turbidity scored visually; details: for Growth in BAM at pH 4.0 at 45° C.: turbidity after 72 hours
Experimental: The basic assay was performed by serially diluting the inhibitors using a two-fold dilution series in a nutrient broth. The dilutions provided inhibitor concentrations in the range of 0.025 ppm to 100 ppm. The nutrient broth used was the American Type Culture Collection Bacillus Agar Medium (BAM) (at pH 4.0 and at 45° C.) for the Alicyclobacillus acidoterrestris. All dilution series were inoculated with approximately 10,000 bacteria per 5 ml. broth tube of freshly cultured (using the same medium) cells per 5 ml. of test assay broth. In each assay, an inoculated sample of the broth without any inhibitor addition was used as a control. Growth was evaluated by visually assessing and scoring the development of turbidity in the broth after 72 hours. The results of the studies are summarized in Table 1 which gives the data from testing the effectiveness of the tetrahydroisohumulone, hexahydrocolupulone and colupulone in inhibiting Alicyclobacillus acidoterrestris. […] Hexahydrocolupulone inhibited the Alicyclobacillus acidoterrestris test strain at or above 50 ppm. Colupulone inhibited the Alicyclobacillus acidoterrestris test strain at or above 50 ppm.

[2] = tested on: Alicyclobacillus; test: Inhibition of Alicyclobacillus in a solid or liquid medium (general statement)
[3] = tested on: Alicyclobacillus acidocaldarius; test: Minimal Inhibitory Concentration (MIC) assay, broth dilution in TSB, turbidity scored visually; details: for Growth in TSB at pH 7.0: turbidity after 48 hours; for Concentration inhibiting the Alicyclobacillus acidocaldarius test strain (MIC): TSB, pH 7.0, 48 hours
Experimental: The basic assay was performed by serially diluting the inhibitors using a two-fold dilution series in a nutrient broth. The dilutions provided inhibitor concentrations in the range of 0.025 ppm to 100 ppm. The nutrient broth used was trypticase soy broth (TSB) (at pH 7.0) for the Alicyclobacillus acidocaldarius. All dilution series were inoculated with approximately 10,000 bacteria per 5 ml. of broth using freshly cultured (using the same medium) cells per 5 ml. of test assay broth. In each assay, an inoculated sample of the broth without any inhibitor addition was used as a control. Growth was evaluated by visually assessing and scoring the development of turbidity in the broth after 48 hours. The results of the studies are summarized in Table 2 which gives the data from testing the effectiveness of the tetrahydroisohumulone and hexahydrocolupulone in inhibiting Alicyclobacillus acidocaldarius. […] Hexahydrocolupulone inhibited the Alicyclobacillus acidocaldarius test strain at or above 0.05 ppm.

## CC(C)=CCC1=C(O)C(C(=O)C(C)C)=C(O)C(CC=C(C)C)(CC=C(C)C)C1=O [Colupulone, colupulone]
[1]; 0.025 ppm
  Growth in BAM at pH 4.0 at 45° C.: ++++ growth
[1]; 0.05 ppm
  Growth in BAM at pH 4.0 at 45° C.: ++++ growth
[1]; 0.1 ppm
  Growth in BAM at pH 4.0 at 45° C.: ++++ growth
[1]; 0.2 ppm
  Growth in BAM at pH 4.0 at 45° C.: ++++ growth
[1]; 0.4 ppm
  Growth in BAM at pH 4.0 at 45° C.: ++++ growth
[1]; 0.8 ppm
  Growth in BAM at pH 4.0 at 45° C.: ++++ growth
[1]; 1.6 ppm
  Growth in BAM at pH 4.0 at 45° C.: ++++ growth
[1]; 3.125 ppm
  Growth in BAM at pH 4.0 at 45° C.: ++++ growth
[1]; 6.25 ppm
  Growth in BAM at pH 4.0 at 45° C.: ++++ growth
[1]; 12.5 ppm
  Growth in BAM at pH 4.0 at 45° C.: ++++ growth
[1]; 25 ppm
  Growth in BAM at pH 4.0 at 45° C.: ++++ growth
[1]; 50 pm
  Growth in BAM at pH 4.0 at 45° C.: No growth
[1]; 100 ppm
  Growth in BAM at pH 4.0 at 45° C.: No growth

## CC(C)CCC1=C(O)C(C(=O)C(C)C)=C(O)C(CCC(C)C)(CCC(C)C)C1=O [Hexahydrocolupulone, hexahydrocolupulone]
[1]; 0.025 ppm
  Growth in BAM at pH 4.0 at 45° C.: ++++ growth
[1]; 0.05 ppm
  Growth in BAM at pH 4.0 at 45° C.: ++++ growth
[1]; 0.1 ppm
  Growth in BAM at pH 4.0 at 45° C.: ++++ growth
[1]; 0.2 ppm
  Growth in BAM at pH 4.0 at 45° C.: ++++ growth
[1]; 0.4 ppm
  Growth in BAM at pH 4.0 at 45° C.: ++++ growth
[1]; 0.8 ppm
  Growth in BAM at pH 4.0 at 45° C.: ++++ growth
[1]; 1.6 ppm
  Growth in BAM at pH 4.0 at 45° C.: ++++ growth
[1]; 3.125 ppm
  Growth in BAM at pH 4.0 at 45° C.: ++++ growth
[1]; 6.25 ppm
  Growth in BAM at pH 4.0 at 45° C.: ++++ growth
[1]; 12.5 ppm
  Growth in BAM at pH 4.0 at 45° C.: ++++ growth
[1]; 25 ppm
  Growth in BAM at pH 4.0 at 45° C.: ++++ growth
[1]; 50 pm
  Growth in BAM at pH 4.0 at 45° C.: No growth
[1]; 100 ppm
  Growth in BAM at pH 4.0 at 45° C.: No growth
[2]
  Concentration effective in inhibiting Alicyclobacillus: ≥ 0.05 ppm
[3]; 0.025 ppm
  Growth in TSB at pH 7.0: ++ growth
[3]; 0.05 ppm
  Growth in TSB at pH 7.0: No growth
[3]; 0.1 ppm
  Growth in TSB at pH 7.0: No growth
[3]; 0.2 ppm
  Growth in TSB at pH 7.0: No growth
[3]; 0.4 ppm
  Growth in TSB at pH 7.0: No growth
[3]; 0.8 ppm
  Growth in TSB at pH 7.0: No growth
[3]; 1.6 ppm
  Growth in TSB at pH 7.0: No growth
[3]; 3.125 ppm
  Growth in TSB at pH 7.0: No growth
[3]; 6.25 ppm
  Growth in TSB at pH 7.0: No growth
[3]; 12.5 ppm
  Growth in TSB at pH 7.0: No growth
[3]; 25 ppm
  Growth in TSB at pH 7.0: No growth
[3]; 50 ppm
  Growth in TSB at pH 7.0: No growth
[3]; 100 ppm
  Growth in TSB at pH 7.0: No growth
[3]
  Concentration inhibiting the Alicyclobacillus acidocaldarius test strain (MIC): ≥ 0.05 ppm

## CC(C)CCC(=O)C1(O)C(O)=C(C(=O)CC(C)C)C(=O)C1CCC(C)C (stereo not shown) [Tetrahydroisohumulone, tetrahydroisohumulone]
[1]; 0.025 ppm
  Growth in BAM at pH 4.0 at 45° C.: ++++ growth
[1]; 0.05 ppm
  Growth in BAM at pH 4.0 at 45° C.: ++++ growth
[1]; 0.1 ppm
  Growth in BAM at pH 4.0 at 45° C.: ++++ growth
[1]; 0.2 ppm
  Growth in BAM at pH 4.0 at 45° C.: ++++ growth
[1]; 0.4 ppm
  Growth in BAM at pH 4.0 at 45° C.: ++++ growth
[1]; 0.8 ppm
  Growth in BAM at pH 4.0 at 45° C.: ++++ growth
[1]; 1.6 ppm
  Growth in BAM at pH 4.0 at 45° C.: ++++ growth
[1]; 3.125 ppm
  Growth in BAM at pH 4.0 at 45° C.: ++++ growth
[1]; 6.25 ppm
  Growth in BAM at pH 4.0 at 45° C.: ++++ growth
[1]; 12.5 ppm
  Growth in BAM at pH 4.0 at 45° C.: ++++ growth
[1]; 25 ppm
  Growth in BAM at pH 4.0 at 45° C.: No growth
[1]; 50 pm
  Growth in BAM at pH 4.0 at 45° C.: No growth
[1]; 100 ppm
  Growth in BAM at pH 4.0 at 45° C.: No growth
[1]; BAM, pH 4.0, 45° C., 72 hours
  Concentration inhibiting the Alicyclobacillus acidoterrestris test strain (MIC): ≥ 25 ppm
[2]
  Concentration effective in inhibiting Alicyclobacillus: ≥ 3 ppm
[3]; 0.025 ppm
  Growth in TSB at pH 7.0: ++++ growth
[3]; 0.05 ppm
  Growth in TSB at pH 7.0: ++++ growth
[3]; 0.1 ppm
  Growth in TSB at pH 7.0: ++++ growth
[3]; 0.2 ppm
  Growth in TSB at pH 7.0: ++++ growth
[3]; 0.4 ppm
  Growth in TSB at pH 7.0: ++++ growth
[3]; 0.8 ppm
  Growth in TSB at pH 7.0: ++++ growth
[3]; 1.6 ppm
  Growth in TSB at pH 7.0: ++++ growth
[3]; 3.125 ppm
  Growth in TSB at pH 7.0: No growth
[3]; 6.25 ppm
  Growth in TSB at pH 7.0: No growth
[3]; 12.5 ppm
  Growth in TSB at pH 7.0: No growth
[3]; 25 ppm
  Growth in TSB at pH 7.0: No growth
[3]; 50 ppm
  Growth in TSB at pH 7.0: No growth
[3]; 100 ppm
  Growth in TSB at pH 7.0: No growth
[3]
  Concentration inhibiting the Alicyclobacillus acidocaldarius test strain (MIC): ≥ 3.125 ppm
